The target in the test is T1, Full-length USP19 (Homo sapiens, UniProt O94966).
T1 construct: Full-length USP19 was purchased from Boston Biochem (E-576); purchased Boston Biochem E-576
T1 sequence (O94966 1-1318): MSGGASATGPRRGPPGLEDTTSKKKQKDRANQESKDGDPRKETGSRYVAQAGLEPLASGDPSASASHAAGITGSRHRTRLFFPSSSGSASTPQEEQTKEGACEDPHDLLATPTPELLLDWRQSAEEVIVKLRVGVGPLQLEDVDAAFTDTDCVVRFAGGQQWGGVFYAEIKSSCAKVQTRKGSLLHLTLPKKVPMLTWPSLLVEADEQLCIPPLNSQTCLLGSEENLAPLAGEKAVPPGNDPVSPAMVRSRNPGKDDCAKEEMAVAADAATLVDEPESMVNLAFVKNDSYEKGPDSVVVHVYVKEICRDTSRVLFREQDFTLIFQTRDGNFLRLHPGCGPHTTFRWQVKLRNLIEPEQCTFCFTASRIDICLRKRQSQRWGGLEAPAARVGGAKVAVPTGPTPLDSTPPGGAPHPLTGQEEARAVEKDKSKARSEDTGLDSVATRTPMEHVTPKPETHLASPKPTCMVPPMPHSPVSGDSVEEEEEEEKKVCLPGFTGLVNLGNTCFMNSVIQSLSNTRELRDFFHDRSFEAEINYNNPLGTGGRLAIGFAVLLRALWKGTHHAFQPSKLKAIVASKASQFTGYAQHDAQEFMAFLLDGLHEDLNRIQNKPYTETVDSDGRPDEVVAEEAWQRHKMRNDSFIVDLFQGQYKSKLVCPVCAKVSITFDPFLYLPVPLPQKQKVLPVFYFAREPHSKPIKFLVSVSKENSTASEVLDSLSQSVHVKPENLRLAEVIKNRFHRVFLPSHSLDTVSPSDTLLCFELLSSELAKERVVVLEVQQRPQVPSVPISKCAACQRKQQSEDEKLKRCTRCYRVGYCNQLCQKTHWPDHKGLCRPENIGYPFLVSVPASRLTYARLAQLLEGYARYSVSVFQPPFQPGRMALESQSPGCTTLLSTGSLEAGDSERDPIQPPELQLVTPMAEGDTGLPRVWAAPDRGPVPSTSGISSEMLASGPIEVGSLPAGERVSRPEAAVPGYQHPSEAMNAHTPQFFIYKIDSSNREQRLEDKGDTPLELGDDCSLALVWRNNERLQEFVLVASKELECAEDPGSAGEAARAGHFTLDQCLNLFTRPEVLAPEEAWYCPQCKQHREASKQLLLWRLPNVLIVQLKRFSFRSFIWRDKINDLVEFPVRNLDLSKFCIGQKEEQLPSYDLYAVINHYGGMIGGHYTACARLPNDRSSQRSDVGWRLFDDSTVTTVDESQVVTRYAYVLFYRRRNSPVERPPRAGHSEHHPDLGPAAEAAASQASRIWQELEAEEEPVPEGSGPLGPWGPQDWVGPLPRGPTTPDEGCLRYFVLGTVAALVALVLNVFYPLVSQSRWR
The test can be described thus: USP19 fluorescence polarisation (FP) homogeneous assay with Ubiquitin-Lys-TAMRA substrate. The test is classed as biochemical. As to conditions: 2.5 nM USP19, 30 min pre-incubation, average of at least two duplicate experiments. Summed up: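 Full-length USP19 preincubated 30 min at RT with inhibitor (200 μM to 2 μM series, 8–18 points) before adding 500 nM Ubiquitin-Lys-TAMRA substrate.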
A general note: Polarisation of emitted light reports the rotation of a fluorescent probe.

`CC(=O)N1CCN(C(=O)N2CC[C@@](O)(Cn3cnc(-c4ccccc4)cc3=O)C3(CCCC3)C2)[C@H](c2ccccc2)C1` [Example 279, 3-(((S)-7-((R)-4-Acetyl-2-phenylpiperazine-1-carbonyl)-10-hydroxy-7-azaspiro[4.5]decan-10-yl)methyl)-6-phenylpyrimidin-4(3H)-one]: the IC50 is 0.5 to 5 µM.

For `C[C@H](CC(F)(F)F)C(=O)N1CCC(O)(CN2C(=O)CC2c2ccccc2)C2(CCCC2)C1` (stereo partly drawn) [Example 101, 1-((10-Hydroxy-7-((R)-4,4,4-trifluoro-2-methylbutanoyl)-7-azaspiro[4.5]decan-10-yl)methyl)-4-phenylazetidin-2-one], the IC50 lay in the range of 50 to 250 µM.

With `CSc1ncc2c(=O)n(CC3(O)CCN(C(=O)[C@H](C)CC4CCCCC4)CC34CCCC4)cnc2n1` (stereo partly drawn) [Example 160, 3-((7-((R)-3-Cyclohexyl-2-methylpropanoyl)-10-hydroxy-7-azaspiro[4.5]decan-10-yl)methyl)-7-(methylthio)pyrimido[4,5-d]pyrimidin-4(3H)-one], the half-inhibitory concentration (IC50) was under 0.5 µM.

For the compound `O=C(N1CCC(O)(Cn2cnc(-c3ccccc3)cc2=O)C2(CCCC2)C1)N1CCCC1C(F)(F)F` (stereo not drawn) [Example 206, 3-((10-Hydroxy-7-(2-(trifluoromethyl)pyrrolidine-1-carbonyl)-7-azaspiro[4.5]decan-10-yl)methyl)-6-phenylpyrimidin-4(3H)-one], the 50% inhibitory concentration (IC50) fell in the range of 0.5 to 5 µM.

Take `O=C(N1CC[C@@](O)(Cn2cnc(-c3ccccc3)cc2=O)C2(CCCC2)C1)N1CCNC[C@H]1c1ccc(F)cc1` [Example 369, 3-(((S)-7-((R)-2-(4-Fluorophenyl)pipera-zine-1-carbonyl)-10-hydroxy-7-azaspiro[4.5]decan-10-yl)methyl)-6-phenylpyrimidin-4(3H)-one]: the IC50 was under 0.5 µM.

On to `CC(C)C1CNCCN1C(=O)N1CCC(O)(Cn2cnc(-c3ccccc3)cc2=O)C2(CCCC2)C1` (stereo not drawn) [Example 208, 3-((10-Hydroxy-7-(2-isopropylpiperazine-1-carbonyl)-7-azaspiro[4.5]decan-10-yl)methyl)-6-phenylpyrimidin-4(3H)-one], for which the IC50 lay within 50 to 250 µM.

For `O=C(N1CC[C@@](O)(Cn2cnc(-c3ccccc3)cc2=O)C2(CCCC2)C1)N1CCNC[C@@H]1c1ccccc1` [Example 210, 3-(((S)-10-Hydroxy-7-((S)-2-phenylpiperazine-1-carbonyl)-7-azaspiro[4.5]decan-10-yl)methyl)-6-phenylpyrimidin-4(3H)-one], the IC50 was under 0.5 µM.

For `O=C(N1CCC(O)(Cn2cnc(-c3ccccc3)cc2=O)C2(CCOCC2)C1)N1CCNC[C@H]1c1ccccc1` (stereo partly drawn) [Example 321, 3-((5-Hydroxy-2-((R)-2-phenylpiperazine-1-carbonyl)-9-oxa-2-azaspiro[5.5]undecan-5-yl)methyl)-6-phenylpyrimidin-4(3H)-one], the IC50 was under 0.5 µM.

As for `CN(Cc1cccnc1)C(=O)N1CCC(O)(Cn2cnc(-c3ccccc3)cc2=O)C2(CCCC2)C1` (stereo not drawn) [Example 244, 10-Hydroxy-N-methyl-10-((6-oxo-4-phenylpyrimidin-1(6H)-yl)methyl)-N-(pyridin-3-ylmethyl)-7-azaspiro[4.5]decane-7-carboxamide], the IC50 is 5 to 50 µM.

For the compound `O=C(N1CC[C@@](O)(Cn2cnc(-c3ccccc3)cc2=O)C2(CCCC2)C1)N1CCN(CC(F)(F)F)C[C@H]1c1ccccc1` [Example 323, 3-(((S)-10-Hydroxy-7-((R)-2-phenyl-4-(2,2,2-trifluoroethyl)piperazine-1-carbonyl)-7-azaspiro[4.5]decan-10-yl)methyl)-6-phenylpyrimidin-4(3H)-one], the half-inhibitory concentration (IC50) is under 0.5 µM.

Regarding `COC(=O)c1cn(CC2(O)CCN(C(=O)[C@H](C)CC3CCCCC3)CC23CCCC3)c(=O)cn1` (stereo partly drawn) [Example 8, Methyl 4-((7-((R)-3-cyclohexyl-2-methylpropanoyl)-10-hydroxy-7-azaspiro[4.5]decan-10-yl)methyl)-5-oxo-4,5-dihydropyrazine-2-carboxylate], the IC50 was under 0.5 µM.

Consider `O=C(N1CC[C@@](O)(Cn2cnc(-c3ccccc3)cc2=O)C2(CCCC2)C1)N1CCCN1c1ccccc1` [Example 299, (S)-3-((10-Hydroxy-7-(2-phenylpyrazolidine-1-carbonyl)-7-azaspiro[4.5]decan-10-yl)methyl)-6-phenylpyrimidin-4(3H)-one], for which the IC50 was in the range of 0.5 to 5 µM.

As for `O=C1CN(c2ccccc2)CCN1CC1(O)CCN(C(=O)NCc2ccccc2)CC12CCCC2` (stereo not drawn) [Example 109, N-Benzyl-10-hydroxy-10-((2-oxo-4-phenylpiperazin-1-yl)methyl)-7-azaspiro[4.5]decane-7-carboxamide], the half-inhibitory concentration (IC50) is under 0.5 µM.

As for `C[C@H](CC(F)(F)F)C(=O)N1CCC(O)(Cn2ccc3cc(C(F)(F)F)ccc3c2=O)C2(CCCC2)C1` (stereo partly drawn) [Example 126, 2-((10-Hydroxy-7-((R)-4,4,4-trifluoro-2-methylbutanoyl)-7-azaspiro[4.5]decan-10-yl)methyl)-6-(trifluoromethyl)isoquinolin-1(2H)-one], the IC50 lay within 5 to 50 µM.

In the case of `O=C(N1CCC(O)(Cn2ccc(-c3ccccc3)c(F)c2=O)C2(CCCC2)C1)N1CCNC[C@H]1c1ccccc1` (stereo partly drawn) [Example 332, 3-Fluoro-1-((10-hydroxy-7-((R)-2-phenylpiperazine-1-carbonyl)-7-azaspiro[4.5]decan-10-yl)methyl)-4-phenylpyridin-2(1H)-one], the IC50 was 0.5 to 5 µM.

In the case of `O=C(N1CC[C@@](O)(Cn2cnc(C3CC3)cc2=O)C2(CCCC2)C1)N1CCOC[C@H]1c1ccccc1` [Example 222, 6-Cyclopropyl-3-(((S)-10-hydroxy-7-((R)-3-phenylmorpholine-4-carbonyl)-7-azaspiro[4.5]decan-10-yl)methyl)pyrimidin-4(3H)-one], the IC50 was under 0.5 µM.

For `C[C@H](CC(F)(F)F)C(=O)N1CCC(O)(CN2CCN(C(=O)c3ccccc3)CC2=O)C2(CCCC2)C1` (stereo partly drawn) [Example 108, 4-Benzoyl-1-((10-hydroxy-7-((R)-4,4,4-trifluoro-2-methylbutanoyl)-7-azaspiro[4.5]decan-10-yl)methyl)Piperazin-2-one], the concentration for half-maximal inhibition (IC50) was in the range of 5 to 50 µM.

Take `C[C@H](CC1CCCCC1)C(=O)N1CCC(O)(Cn2cc([S+](C)[O-])c(Cl)cc2=O)C2(CCCC2)C1` (stereo partly drawn) [Example 70, 4-Chloro-1-((7-((R)-3-cyclohexyl-2-methylpropanoyl)-10-hydroxy-7-azaspiro[4.5]decan-10-yl)methyl)-5-(methylsulfinyl)pyridin-2(1H)-one]: the half-maximal inhibitory concentration (IC50) was under 0.5 µM.

Take `Cn1cc2ncn(CC3(O)CCN(C(=O)N4CCNC[C@H]4c4ccccc4)CC34CCCC4)c(=O)c2n1` (stereo partly drawn) [Example 179, 6-((10-Hydroxy-7-((R)-2-phenylpiperazine-1-carbonyl)-7-azaspiro[4.5]decan-10-yl)methyl)-2-methyl-2,6-dihydro-7H-pyrazolo[4,3-d]pyrimidin-7-one]: the 50% inhibitory concentration (IC50) fell in the range of 5 to 50 µM.

As for `Cn1nccc1-c1cc(=O)n(C[C@]2(O)CCN(C(=O)N3CCNC[C@H]3c3ccccc3)CC23CCCC3)cn1` [Example 289, 3-(((S)-10-Hydroxy-7-((R)-2-phenylpiperazine-1-carbonyl)-7-azaspiro[4.5]decan-10-yl)methyl)-6-(1-methyl-1H-pyrazol-5-yl)pyrimidin-4(3H)-one], the half-inhibitory concentration (IC50) is under 0.5 µM.

For `C[C@@H]1CNCCN1C(=O)N1CCC(O)(Cn2cnc(-c3ccccc3)cc2=O)C2(CCCC2)C1` (stereo partly drawn) [Example 207, 3-((10-Hydroxy-7-((R)-2-methylpiperazine-1-carbonyl)-7-azaspiro[4.5]decan-10-yl)methyl)-6-phenylpyrimidin-4(3H)-one], the 50% inhibitory concentration (IC50) was 50 to 250 µM.

In general, IC50 refers to the midpoint of a concentration-inhibition curve.
